Reference: ChEMBL document CHEMBL1201862, “PubChem BioAssay data set” (2004)
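Where inhibition never reached the appropriate level, the endpoint shown equals the highest concentration tested. Otherwise, values were interpolated linearly from a five-concentration, 48-hour dose response in 96-well plates. Abbreviation: GI50, concentration required for 50% inhibition of growth.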 Active and inactive are the calls of the source. Rule as the data show it: active = GI50 up to about 1.1 µM and inactive = higher.

Legend:
Experiment in all cases: NCI anticancer screen, dose series, 48 h
XF498 = tested on: XF498
SNB-78 = tested on: SNB-78
OVCAR-5 = tested on: OVCAR-5
HCT-15 = tested on: HCT-15
UACC-62 = tested on: UACC-62
MOLT-4 = tested on: MOLT-4
M19-MEL = tested on: M19-MEL
OVCAR-3 = tested on: OVCAR-3
KM-20L2 = tested on: KM-20L2
OVCAR-8 = tested on: OVCAR-8
DMS-273 = tested on: DMS-273
SNB-19 = tested on: SNB-19
SW-620 = tested on: SW-620
HOP-18 = tested on: HOP-18
ACHN = tested on: ACHN
PC-3 = tested on: PC-3
MDA-MB-231 = tested on: MDA-MB-231
MDA-N = tested on: MDA-N
DU-145 = tested on: DU-145
T47D = tested on: T47D

Structure (SMILES)	GI50 (XF498)	GI50 (SNB-78)	GI50 (OVCAR-5)	GI50 (HCT-15) [µM]	GI50 (UACC-62)	GI50 (MOLT-4)	GI50 (M19-MEL)	GI50 (OVCAR-3)	GI50 (KM-20L2)	GI50 (OVCAR-8)	GI50 (DMS-273)	GI50 (SNB-19)	GI50 (SW-620)	GI50 (HOP-18)	GI50 (ACHN)	GI50 (PC-3)	GI50 (MDA-MB-231)	GI50 (MDA-N)	GI50 (DU-145)	GI50 (T47D)
C[S+](C)CC1OC(n2cnc3c(N)ncnc32)C(O)C1O (stereo not given)	> 225 µM (inactive)	> 225 µM (inactive)	> 225 µM (inactive)	> 225	> 96.2 µM (inactive)	> 225 µM (inactive)	> 179 µM (inactive)	> 225 µM (inactive)	> 225 µM (inactive)	> 225 µM (inactive)	> 225 µM (inactive)	> 225 µM (inactive)	> 225 µM (inactive)							
CC[C@H]1CN2CCc3cc(OC)c(OC)cc3[C@@H]2C[C@@H]1C[C@H]1NCCc2cc(O)c(OC)cc21			0.25 µM (active)	0.0491	0.0478 µM (active)	0.0502 µM (active)	0.0253 µM (active)	0.0377 µM (active)	0.025 µM (active)	0.025 µM (active)	0.0344 µM (active)	0.025 µM (active)	0.025 µM (active)							
c1ccc2c(c1)SCCc1cn[nH]c1-2	> 100 µM (inactive)	> 100 µM (inactive)	> 100 µM (inactive)	> 100	> 100 µM (inactive)	> 100 µM (inactive)	> 100 µM (inactive)	> 100 µM (inactive)	> 100 µM (inactive)	> 100 µM (inactive)	> 100 µM (inactive)	> 100 µM (inactive)	> 100 µM (inactive)	> 100 µM (inactive)						
N/N=C(\C(=O)Nc1c(Cl)cc([N+](=O)[O-])cc1Cl)C(c1cnc2ccc([N+](=O)[O-])cc2n1)[N+](=O)[O-] (stereo not given)	> 100 µM (inactive)	40.4 µM (inactive)	> 100 µM (inactive)	> 100	36.9 µM (inactive)	47.6 µM (inactive)	> 100 µM (inactive)		> 100 µM (inactive)	> 100 µM (inactive)	38.6 µM (inactive)	> 100 µM (inactive)	99.3 µM (inactive)		> 100 µM (inactive)					
CC(=O)OCC1OC(Nc2ncc(-c3ccc(C)cc3)s2)C(OC(C)=O)C(OC(C)=O)C1OC(C)=O (stereo not given)		40.8 µM (inactive)	38.1 µM (inactive)	37.5	27 µM (inactive)	24.6 µM (inactive)	18.8 µM (inactive)	31.6 µM (inactive)		39.7 µM (inactive)	> 58.9 µM (inactive)	> 100 µM (inactive)	74.5 µM (inactive)	35.8 µM (inactive)						
COc1ccc(/C(Cl)=C(\C=O)c2ccc(F)cc2)cc1		7.53 µM (inactive)		4.24	9.08 µM (inactive)	3.56 µM (inactive)	15 µM (inactive)	19.1 µM (inactive)	6.87 µM (inactive)	10.8 µM (inactive)	14.9 µM (inactive)	17.9 µM (inactive)	6.81 µM (inactive)	6.58 µM (inactive)	6.14 µM (inactive)					
COC(=O)C(/C(=N/NC(N)=S)C(=O)Nc1ccccc1[N+](=O)[O-])c1cnc2ccccc2n1 (stereo not given)	> 100 µM (inactive)	> 100 µM (inactive)	> 100 µM (inactive)	> 100	> 100 µM (inactive)	83 µM (inactive)	> 100 µM (inactive)		> 100 µM (inactive)	> 100 µM (inactive)	> 100 µM (inactive)	> 100 µM (inactive)	> 100 µM (inactive)	> 100 µM (inactive)	> 100 µM (inactive)					
CCOC(=O)C(=O)NC12CC3CC(CC(C3)C1)C2	> 100 µM (inactive)		> 100 µM (inactive)	> 100	> 100 µM (inactive)				> 100 µM (inactive)	> 100 µM (inactive)	> 100 µM (inactive)	> 100 µM (inactive)	> 100 µM (inactive)	> 100 µM (inactive)	> 100 µM (inactive)					
CCCCCCSc1nc(N)nc2nc[nH]c12	32.5 µM (inactive)	38.5 µM (inactive)	41.2 µM (inactive)	35.4	37 µM (inactive)	> 55.2 µM (inactive)	47.1 µM (inactive)	40.2 µM (inactive)	39.7 µM (inactive)	42.5 µM (inactive)	43.7 µM (inactive)	39.4 µM (inactive)	56.2 µM (inactive)							
O=C(CC/C=C(/CS(=O)(=O)c1ccccc1)S(=O)(=O)c1ccccc1)c1ccccc1	95.9 µM (inactive)		> 100 µM (inactive)	> 100	22.2 µM (inactive)	> 100 µM (inactive)		85.5 µM (inactive)	> 100 µM (inactive)	> 100 µM (inactive)	> 100 µM (inactive)	> 100 µM (inactive)	> 100 µM (inactive)	> 100 µM (inactive)	> 100 µM (inactive)					
O=C(OCc1ccccc1)OOC(=O)OCc1ccccc1		> 100 µM (inactive)	> 100 µM (inactive)	> 100	> 100 µM (inactive)	> 100 µM (inactive)	> 100 µM (inactive)	> 100 µM (inactive)	> 100 µM (inactive)			> 100 µM (inactive)	> 100 µM (inactive)		> 100 µM (inactive)					
COC(=O)C1C(O)C(C)C(O)C(C)(O)/C=C\C=C(C)C(=O)Nc2c(C)c(OC(C)=O)c3c(c2O)C(=O)C(C)=C2OCOC(=C23)C(C)=CC(C)(O)C(O)C(C)C1OC(C)=O (stereo not given)		44.6 µM (inactive)	> 100 µM (inactive)	35.5	21.1 µM (inactive)	38 µM (inactive)	17.3 µM (inactive)	27.7 µM (inactive)	33.7 µM (inactive)	49.3 µM (inactive)	44 µM (inactive)	89.9 µM (inactive)	38.3 µM (inactive)	93.1 µM (inactive)						
COc1c2c(cc3c(CCc4ccccc4)cc(=O)oc13)CCC(C)(C)O2			> 100 µM (inactive)	> 100	> 100 µM (inactive)	> 100 µM (inactive)	> 100 µM (inactive)	> 100 µM (inactive)	> 100 µM (inactive)	> 100 µM (inactive)	> 100 µM (inactive)		> 100 µM (inactive)		> 100 µM (inactive)					
COC(=O)C(Cc1ccc(N(C)C)cc1)(NC(=O)c1ccccc1)P(=O)(OC)OC (stereo not given)	> 100 µM (inactive)		> 100 µM (inactive)	> 100	> 100 µM (inactive)	> 100 µM (inactive)	> 100 µM (inactive)		> 100 µM (inactive)	> 100 µM (inactive)	> 100 µM (inactive)	> 100 µM (inactive)	> 100 µM (inactive)		> 100 µM (inactive)					
CCOC(=O)C1(C(F)(F)F)N=C(CC)OC(N2CCOCC2)=N1 (stereo not given)			> 100 µM (inactive)	> 100	54.5 µM (inactive)	> 100 µM (inactive)		> 100 µM (inactive)		> 100 µM (inactive)		> 100 µM (inactive)	> 100 µM (inactive)		> 100 µM (inactive)	> 100 µM (inactive)	> 100 µM (inactive)	> 100 µM (inactive)	> 100 µM (inactive)	46.6 µM (inactive)
O=S1(=O)CC#CC[C@@H](CO)[C@@H](CO)CC#CC1	> 100 µM (inactive)	> 100 µM (inactive)	> 100 µM (inactive)	> 100	> 100 µM (inactive)	42.5 µM (inactive)	47.1 µM (inactive)	> 100 µM (inactive)	> 100 µM (inactive)	> 100 µM (inactive)			36.4 µM (inactive)		> 100 µM (inactive)					
